System: retinal ganglion cells
Assay: Test 2: optic nerve protection in optic nerve crush injury murine model, oral administration
Format: in vivo, mice
Details: summary statement; oral or intraocular administration, optic nerve crush injury model and NMDA model
Method: The nerve protection effect of each ingredient was verified by using a rodent glaucoma pathological model of an optic nerve crush injury murine model.
Test animal: male C57BL/6 strain mice, 9-12 weeks old, each approximately 25 g
The experiment was conducted according to the following method. The number of samples in each group was 8.
(2) To the mice in the experimental groups, each ingredient prepared as shown in Table 2 was orally administered at a dosage as shown in Table 2 once a day from one week before the optic nerve crush treatment; to the mice in the control groups, 100 μL of distilled water or phosphate-buffered saline (containing no Ca or Mg, pH: 7.4, hereinafter abbreviated as “PBS(−)”) was administered likewise.
(3) The optic nerve crush treatment on the mice was performed under anesthesia by administering ketamine (100 mg/kg) and xylazine (5 mg/kg). The optic nerve crush treatment was performed on only single eyes, and the fellow eyes were untreated. After the optic nerve crush treatment was completed, an antibacterial ophthalmic ointment was instilled to the eyes of the mice. […]
(7) The number of cells labeled with Fluoro-Gold was counted to obtain an average number at the 12 sites. […]

COc1ccc([C@@H]2CC(=O)c3c(O)cc(O[C@@H]4O[C@H](CO[C@@H]5O[C@@H](C)[C@H](O)[C@@H](O)[C@H]5O)[C@@H](O)[C@H](O)[C@H]4O)cc3O2)cc1O [hesperidin]
protection effect on the death of retinal ganglion cells: excellent protection effect on the death of retinal ganglion cells

— patent US10849918B2, “Composition for optic nerve protection” (TOHOKU TECHNO ARCH CO., LTD., priority 2015, dated 2020)
